pIC50, pKi: −log10 of the molar value. Where two headings read alike, the source gives them in different places.
What was measured:
Recombinant human LDH-B [1] = biological target: T1, Recombinant human LDH-B (Homo sapiens, UniProt P07195); assay: NBT/PMS end-point colorimetric assay, 96-well, lactate to pyruvate; assay type: biochemical
T1 construct: gene LDHB; commercial recombinant protein (R&D Systems); homotetramer (LDH-1)

Recombinant human LDH-B [2] = biological target: T1, Recombinant human LDH-B; assay: NBT/PMS colorimetric kinetics, mixed-model inhibition fit; assay type: biochemical
Description: NBT/PMS colorimetric kinetics, mixed-model inhibition fit on Recombinant human LDH-B

C[C@H](O)C(=O)O = system: T2, C[C@H](O)C(=O)O; assay: NBT/PMS colorimetric kinetics, Michaelis-Menten fit; assay type: biochemical, Homo sapiens; details: 1 mM NAD+, no inhibitor (control), pH 9.6, room temperature
T2 construct: commercial recombinant protein (R&D Systems); homotetramer (LDH-1)
Description: (§1) NBT/PMS colorimetric kinetics, Michaelis-Menten fit on Recombinant human LDH-B

[3] = system: T3, NC(=O)c1ccc[n+]([C@@H]2O[C@H](COP(=O)(O)OP(=O)(O)OC[C@H]3O[C@@H](n4cnc5c(N)ncnc54)[C@H](O)[C@@H]3O)[C@@H](O)[C@H]2O)c1; assay: as above; assay type: biochemical, Homo sapiens; details: 25 mM sodium lactate, no inhibitor (control), pH 9.6, room temperature, varied: cofactor
T3 construct: commercial recombinant protein (R&D Systems); homotetramer (LDH-1)
Description: as §1

T1 sequence (P07195 2-334): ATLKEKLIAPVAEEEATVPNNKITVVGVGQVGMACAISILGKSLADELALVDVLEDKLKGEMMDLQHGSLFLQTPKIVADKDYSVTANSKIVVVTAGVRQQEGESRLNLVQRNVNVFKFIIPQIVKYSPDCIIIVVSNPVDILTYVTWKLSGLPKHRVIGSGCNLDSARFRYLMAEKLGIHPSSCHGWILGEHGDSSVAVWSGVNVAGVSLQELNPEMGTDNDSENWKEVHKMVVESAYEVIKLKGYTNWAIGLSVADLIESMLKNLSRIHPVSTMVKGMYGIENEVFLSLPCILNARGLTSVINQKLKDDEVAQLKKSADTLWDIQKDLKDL

pIC50 (Recombinant human LDH-B [1])	pKi (Recombinant human LDH-B [2]; read-out: Tucatinib / Lactate)	pKi (Recombinant human LDH-B [2]; read-out: Capmatinib / Lactate)	Molecule	Km (C[C@H](O)C(=O)O) [mM]	Vmax (C[C@H](O)C(=O)O) [µM/min]	Km [3] [mM]	Vmax [3] [µM/min]
3.30	2.53	–	Cc1cc(Nc2ncnc3ccc(NC4=NC(C)(C)CO4)cc23)ccc1Oc1ccn2ncnc2c1 [compound 1, Tucatinib]	–	–	–	–
3.29	–	2.57	CNC(=O)c1ccc(-c2cnc3ncc(Cc4ccc5ncccc5c4)n3n2)cc1F [compound 2, Capmatinib]	–	–	–	–
–	–	–	Recombinant human LDH-B (Homo sapiens)	18.5	1050	0.311	1040

Reference: PMC10609963, “Targeting Lactate Dehydrogenase-B as a Strategy to Fight Cancer: Identification of Potential Inhibitors by In Silico Analysis and In Vitro Screening” (Pharmaceutics, 2023)
